Values quoted from earlier work as cited in patent US6764831B2, “Methods and compositions for pain management” (priority 1998, dated 2004).

Columns and labels:
[1] = test system: cholinesterase
[2] = test system: extracellular ACh level
[3] = injected into the brachial artery of humans
[4] = test system: cholinesterase (ChE); conditions: muscle relaxants used with anesthesia
[5] = test system: ACh level in the extracellular space; conditions: injection into rats

SMILES | effect on cholinesterase (ChE) [4] | other results
CN(C)C(=O)Oc1cccc([N+](C)(C)C)c1 [neostigmine] | – | cholinesterase inhibition [1]: inhibit; extracellular ACh level [2]: above detection limit
CC(=O)OCC[N+](C)(C)C [ACh, acetylcholine] | – | pain produced on injection [3]: extreme pain was produced
C=CC[N+]1([C@H]2C[C@H]3[C@@H]4CC[C@H]5C[C@H](O)[C@@H](N6CCOCC6)C[C@]5(C)[C@H]4CC[C@]3(C)[C@H]2OC(C)=O)CCCC1 [ROCURONIUM] | no effect | –
COc1ccc(C[C@@H]2c3cc(OC)c(OC)cc3CC[N@+]2(C)CCC(=O)OCCCCCOC(=O)CC[N@@+]2(C)CCc3cc(OC)c(OC)cc3[C@H]2Cc2ccc(OC)c(OC)c2)cc1OC [NIMBEX] | no effect | –
CC(=O)O[C@H]1C[C@@H]2CC[C@@H]3[C@H](CC[C@@]4(C)[C@H]3C[C@H]([N+]3(C)CCCCC3)[C@@H]4OC(C)=O)[C@@]2(C)C[C@@H]1N1CCCCC1.[Br-] [NOCURON] | no effect | –
C[N+](C)(C)CCOC(=O)CCC(=O)OCC[N+](C)(C)C [Succinylcholine] | no effect | –
CCCCCCCNC(=O)Oc1ccc2c(c1)[C@]1(C)CCN(C)[C@@H]1N2C [heptylphysostigmine] | – | ACh level in the extracellular space [5]: elevation
